Measurements taken from patent US20020137154A1, “Methods for improving cell growth and alcohol production during fermentation” (priority 2000, published 2002).

Legend:
Format in all cases: cell-based
[1] = test system: recombinant Escherichia coli KO11; experiment: Batch fermentation of E. coli KO11 in Luria broth and xylose with nutrient additives: ethanol production and cell growth; conditions: LB+xylose; additive 2 g/L unless indicated
Experimental: (§1) Two types of media were tested: 1% CSL and Luria broth (LB). Each contained 97 g of either xylose or glucose per liter. Luria Broth consists of, per liter: 10 g Difco® Tryptone, 5 g Difco® Yeast Extract and 5 g NaCl. The 1% CSL medium consists of Corn Steep Liquor (1% w/v) plus mineral salts (mineral salts per liter: 1 g of KH2PO4. 0.5 g of K2HPO4, 3.1 g of (NH4)2SO4, 0.4 g of MgCl2·6H2), and 20 mg FeCl3·6H2O).
(§2) Luria Broth was prepared by autoclaving a 2× nutrient stock containing, per liter: 20 g Difco® Tryptone, 10 g Difo® Yeast Extract, and 10 g NaCl. Sugars (xylose or glucose) were autoclaved separately. A 1% CSL medium was prepared as follows: Commercial Corn Steep Liquor (CSL; 50% dry weight/50% water) was diluted with tap water to make a 20X stock containing 100 g dry weight of Corn Steep Liquor/L and was adjusted to pH 7.2 with NaOH (50%). After sterilization by autoclaving, the 20X CSL stock was clarified by centrifugation at 5000×g for 10 minutes. Magnesium was added as a 100× stock solution (40 g/L MgCl2·6H2O). Iron was added as a 1000× stock solution made by dissolving 20 g FeCl3·6H2O in 175 mL of HCl and adjusting to 1 L with sterile water. Nitrogen, sulfur and phosphorus were added using a 20× stock solution containing the following (per liter): 20 g of KH2PO4, 10 g of K2HPO4 and 62 g of (NH4)2SO4. Stock solutions containing minerals were sterilized separately by autoclaving. Final media was prepared by adding 750 mL of water to 1 L bottle containing 100 g of xylose or glucose.
(§3) Inocula were grown in same media used for fermentation and were prepared as follows. Three colonies from a fresh plate were used to inoculate seed cultures: 250-mL flask containing 100 mL medium. These cultures were grown with agitation (120 rpm) for 12-16 hours at 35° C. to a final OD550nm of approximately 2.0-2.5. Cells were harvested by centrifugation at 5000×g for 5 minutes, and resuspended in fresh media to an OD550nm of 0.1. The resulting suspension was distributed into 500-mL beakers containing 345 ml each of fermentation medium. Acetaldehyde was added as indicated. Batch fermentations (35° C., 100 rpm) were maintained at pH 6.5 by the automatic addition of 2N KOH. Cell mass, ethanol, and base addition (2N KOH) were recorded during 96 hours of incubation.
(§4) Equivalent amounts of distilled water were added instead of the acetaldehyde in control experiments.
(§5) Additives (e.g., as listed in Table 1) were dissolved in 5 mL di-H2O. Solutions with pH lower than 5 were neutralized to pH 6.5 with 2N KOH. Nutritional supplements were then filter-sterilized (0.45 μm filter disk) directly into the fermentation vessel containing the culture. The final concentration of all additives in the culture medium was 2 g/L unless otherwise indicated.
(§6) Cell mass was estimated by measuring OD550nm using Baush & Lomb® Spectronic 70 spectrophotometer. […] Ethanol was measured by gas chromatography using a Varian® 3400 CX gas chromatograph with 1-propanol as an internal standard.
(§7) Tables 1, 3, and 5 show time to completion of fermentation, ethanol production, and volumetric productivity of the fermentation for all concentrations of the compound and the control. Maximum ethanol production is shown in grams/liter (g/L). The ethanol yield is shown in grams of ethanol/grams of added sugar. Maximum volumetric productivity is shown in grams ethanol/(liter)(hour). The average productivity is calculated form the start of fermentation to the completion of fermentation is grams ethanol/(liter)hour).
(§8) Tables 2, 4, and 6 show the initial growth of the cells (OD taken after the first 24 hours of fermentation) and the maximum cell density (the time which culture reaches the maximum OD value).
(§9) Acetaldehyde was added to the fermentation medium at five different concentrations and time points. […] Where two additions are indicated, the first volume was added at the start of fermentation and the second was added after 8 hours of fermentation.

[2] = test system: recombinant Escherichia coli KO11; experiment: Batch fermentation of E. coli KO11 in 1% CSL medium and glucose with nutrient additives: ethanol production and cell growth; conditions: additive 2 g/L unless indicated; for Ethanol Production Maximum / Ethanol Production Maximum % Control / Ethanol yield / Initial Growth (OD @ 24 h) % Control / Initial Growth (OD @ 24 h) OD / Maximum Cell Density % Control / Maximum Cell Density OD / Maximum Cell Density Time / Time to completion / Volumetric Productivity Average / Volumetric Productivity Average % Control / Volumetric Productivity Maximum / Volumetric Productivity Maximum % Control: 1% CSL+glucose; for activity at 2000 µg/mL: Escherichia coli
Experimental: as §1, §2, §3, §4, §5, §6, §7, §8, §9

[3] = test system: recombinant Escherichia coli KO11; experiment: Batch fermentation of E. coli KO11 in 1% CSL medium and xylose with nutrient additives: ethanol production and cell growth; conditions: additive 2 g/L unless indicated; for Ethanol Production Maximum / Ethanol Production Maximum % Control / Ethanol yield / Initial Growth (OD @ 24 h) % Control / Initial Growth (OD @ 24 h) OD / Maximum Cell Density % Control / Maximum Cell Density OD / Maximum Cell Density Time / Time to completion / Volumetric Productivity Average / Volumetric Productivity Average % Control / Volumetric Productivity Maximum / Volumetric Productivity Maximum % Control: 1% CSL+xylose; for activity at 2000 µg/mL: Escherichia coli
Experimental: as §1, §2
as §3, with “incubation. […]” for “incubation.”
as §5, §6, §7
Tables 2, 4, and 6 show the initial growth of the cells (OD taken after the first 24 hours of fermentation) and the maximum cell density (the time which culture reaches the maximum OD value). […]

[4] = 24 h, read-out: Initial Growth (OD @ 24 h) % Control, 1% CSL+glucose
[5] = read-out: Ethanol Production Maximum % Control, 1% CSL+glucose
[6] = read-out: Maximum Cell Density % Control, 1% CSL+glucose
[7] = read-out: Volumetric Productivity Average % Control, 1% CSL+glucose
[8] = read-out: Volumetric Productivity Maximum % Control, 1% CSL+glucose
[9] = 24 h, read-out: Initial Growth (OD @ 24 h) % Control, 1% CSL+xylose
[10] = read-out: Ethanol Production Maximum % Control, 1% CSL+xylose
[11] = read-out: Maximum Cell Density % Control, 1% CSL+xylose
[12] = read-out: Volumetric Productivity Average % Control, 1% CSL+xylose
[13] = read-out: Volumetric Productivity Maximum % Control, 1% CSL+xylose

## N[C@@H](CCC(=O)O)C(=O)O [Glutamate, glutamate]
[1]
  Ethanol Production Maximum: 44.67 g/L
  Ethanol Production Maximum % Control: 103.69%
  Ethanol yield: 0.460 grams of ethanol/grams of added sugar
  Initial Growth (OD at 24 h) % Control: 106.21%
  Initial Growth (OD at 24 h) OD: 10.61 OD
  Maximum Cell Density % Control: 96.07%
  Maximum Cell Density OD: 10.61 OD
  Maximum Cell Density Time: 24 h
  Time to completion: 48 h
  Volumetric Productivity Average: 0.931 grams ethanol/(liter)(hour)
  Volumetric Productivity Average % Control: 103.69%
  Volumetric Productivity Maximum: 1.328 grams ethanol/(liter)(hour)
  Volumetric Productivity Maximum % Control: 115.30%
[2]
  Ethanol Production Maximum: 43.39 g/L
  Ethanol Production Maximum % Control: 117.30%
  Ethanol yield: 0.447 grams of ethanol/grams of added sugar
  Initial Growth (OD @ 24 h) % Control: 107.10%
  Initial Growth (OD @ 24 h) OD: 2.86 OD
  Maximum Cell Density % Control: 140.94%
  Maximum Cell Density OD: 3.79 OD
  Maximum Cell Density Time: 72 h
  Time to completion: 72 h
  Volumetric Productivity Average: 0.603 grams ethanol/(liter)(hour)
  Volumetric Productivity Average % Control: 156.40%
  Volumetric Productivity Maximum: 0.763 grams ethanol/(liter)(hour)
  Volumetric Productivity Maximum % Control: 148.52%
[3]
  Ethanol Production Maximum: 43.14 g/L
  Ethanol Production Maximum % Control: 143.43%
  Ethanol yield: 0.444 grams of ethanol/grams of added sugar
  Initial Growth (OD @ 24 h) % Control: 180.49%
  Initial Growth (OD @ 24 h) OD: 3.69 OD
  Maximum Cell Density % Control: 200.16%
  Maximum Cell Density OD: 5.04 OD
  Maximum Cell Density Time: 96 h
  Time to completion: 96 h
  Volumetric Productivity Average: 0.449 grams ethanol/(liter)(hour)
  Volumetric Productivity Average % Control: 143.43%
  Volumetric Productivity Maximum: 0.665 grams ethanol/(liter)(hour)
  Volumetric Productivity Maximum % Control: 180.439%

## O=C(O)CC(O)C(=O)O (stereo not drawn) [Malate, malate]
[2]
  Ethanol Production Maximum: 27.58 g/L
  Ethanol yield: 0.284 grams of ethanol/grams of added sugar
  Initial Growth (OD @ 24 h) OD: 3.19 OD
  Maximum Cell Density OD: 3.39 OD
  Volumetric Productivity Average: 0.287 grams ethanol/(liter)(hour)
  Volumetric Productivity Maximum: 0.498 grams ethanol/(liter)(hour)
[2]; [4]
  activity at 2000 µg/mL: 119%
[2]; [5]
  activity at 2000 µg/mL: 74.6%
[2]; [6]
  activity at 2000 µg/mL: 126%
[2]; [7]
  activity at 2000 µg/mL: 74.6%
[2]; [8]
  activity at 2000 µg/mL: 97%
[3]
  Ethanol Production Maximum: 24.43 g/L
  Ethanol yield: 0.252 grams of ethanol/grams of added sugar
  Initial Growth (OD @ 24 h) OD: 1.71 OD
  Maximum Cell Density OD: 2.42 OD
  Maximum Cell Density Time: 96 h
  Volumetric Productivity Average: 0.255 grams ethanol/(liter)(hour)
  Volumetric Productivity Maximum: 0.274 grams ethanol/(liter)(hour)
[3]; [9]
  activity at 2000 µg/mL: 83.9%
[3]; [10]
  activity at 2000 µg/mL: 81.2%
[3]; [11]
  activity at 2000 µg/mL: 96.3%
[3]; [12]
  activity at 2000 µg/mL: 81.2%
[3]; [13]
  activity at 2000 µg/mL: 74.5%

## O=C(O)CC(=O)C(=O)O [Oxaloacetate]
[2]
  Ethanol Production Maximum: 39.72 g/L
  Ethanol yield: 0.409 grams of ethanol/grams of added sugar
  Initial Growth (OD @ 24 h) OD: 3.29 OD
  Maximum Cell Density OD: 3.46 OD
  Volumetric Productivity Average: 0.552 grams ethanol/(liter)(hour)
  Volumetric Productivity Maximum: 0.712 grams ethanol/(liter)(hour)
[2]; [4]
  activity at 2000 µg/mL: 123%
[2]; [5]
  activity at 2000 µg/mL: 107%
[2]; [6]
  activity at 2000 µg/mL: 129%
[2]; [7]
  activity at 2000 µg/mL: 143%
[2]; [8]
  activity at 2000 µg/mL: 138%
[3]
  Ethanol Production Maximum: 23.61 g/L
  Ethanol yield: 0.243 grams of ethanol/grams of added sugar
  Initial Growth (OD @ 24 h) OD: 1.65 OD
  Maximum Cell Density OD: 2.26 OD
  Maximum Cell Density Time: 96 h
  Volumetric Productivity Average: 0.246 grams ethanol/(liter)(hour)
  Volumetric Productivity Maximum: 0.270 grams ethanol/(liter)(hour)
[3]; [9]
  activity at 2000 µg/mL: 80.8%
[3]; [10]
  activity at 2000 µg/mL: 78.5%
[3]; [11]
  activity at 2000 µg/mL: 89.9%
[3]; [12]
  activity at 2000 µg/mL: 78.5%
[3]; [13]
  activity at 2000 µg/mL: 73.3%

## O=C(O)CCC(=O)O [Succinate, succinate]
[2]
  Ethanol Production Maximum: 30.13 g/L
  Ethanol Production Maximum % Control: 81.46%
  Ethanol yield: 0.310 grams of ethanol/grams of added sugar
  Initial Growth (OD @ 24 h) % Control: 100.47%
  Initial Growth (OD @ 24 h) OD: 2.69 OD
  Maximum Cell Density % Control: 98.99%
  Maximum Cell Density OD: 2.66 OD
  Maximum Cell Density Time: 72 h
  Time to completion: 96 h
  Volumetric Productivity Average: 0.314 grams ethanol/(liter)(hour)
  Volumetric Productivity Average % Control: 81.46%
  Volumetric Productivity Maximum: 0.511 grams ethanol/(liter)(hour)
  Volumetric Productivity Maximum % Control: 99.45%
[3]
  Ethanol Production Maximum: 35.00 g/L
  Ethanol Production Maximum % Control: 116.35%
  Ethanol yield: 0.360 grams of ethanol/grams of added sugar
  Initial Growth (OD @ 24 h) % Control: 103.40%
  Initial Growth (OD @ 24 h) OD: 2.11 OD
  Maximum Cell Density % Control: 124.13%
  Maximum Cell Density OD: 3.12 OD
  Maximum Cell Density Time: 96 h
  Time to completion: >96 h
  Volumetric Productivity Average: 0.365 grams ethanol/(liter)(hour)
  Volumetric Productivity Average % Control: 116.35%
  Volumetric Productivity Maximum: 0.400 grams ethanol/(liter)(hour)
  Volumetric Productivity Maximum % Control: 108.536%
